One block for each molecule: values may come before it.
Legend:
rACD5 = molecular target: T1, rACD5 (Arabidopsis thaliana, UniProt Q6USK2); experiment: TLC with NBD fluorescence scan, turnover; assay type: biochemical; conditions: ATP 1 mM, 15 mM MgCl2, mixed micelles, 40 °C, 30 min; labelled compound
T1 construct: gene CERK; coding region in pET28b, His-tagged, E. coli BL21 (DE3), Ni-NTA; N-terminus from primer MEEGRDDE
T1 sequence (Q6USK2 1-608): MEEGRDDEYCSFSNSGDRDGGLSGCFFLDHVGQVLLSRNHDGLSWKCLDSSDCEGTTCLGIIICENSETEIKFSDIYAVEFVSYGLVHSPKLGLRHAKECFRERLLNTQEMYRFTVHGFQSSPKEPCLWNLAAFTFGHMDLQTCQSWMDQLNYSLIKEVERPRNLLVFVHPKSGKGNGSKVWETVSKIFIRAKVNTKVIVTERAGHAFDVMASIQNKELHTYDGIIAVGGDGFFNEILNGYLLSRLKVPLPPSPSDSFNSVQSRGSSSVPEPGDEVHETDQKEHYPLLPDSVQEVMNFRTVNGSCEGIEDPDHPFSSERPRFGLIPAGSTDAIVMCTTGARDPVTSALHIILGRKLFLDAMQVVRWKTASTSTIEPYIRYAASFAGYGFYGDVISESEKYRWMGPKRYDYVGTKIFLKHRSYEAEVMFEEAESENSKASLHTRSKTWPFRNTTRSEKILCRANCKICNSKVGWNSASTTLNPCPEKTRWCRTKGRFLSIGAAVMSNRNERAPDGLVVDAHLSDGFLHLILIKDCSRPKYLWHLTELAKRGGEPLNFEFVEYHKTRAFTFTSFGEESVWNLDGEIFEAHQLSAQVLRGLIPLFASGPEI

OsCERK = molecular target: T2, OsCERK (Oryza sativa, UniProt C0LT23); experiment: TLC with NBD fluorescence scan, inhibition of C6-NBD-ceramide phosphorylation; assay type: biochemical
T2 construct: gene CERK; N-terminus from primer MEGGGEAL
T2 sequence (C0LT23 1-607): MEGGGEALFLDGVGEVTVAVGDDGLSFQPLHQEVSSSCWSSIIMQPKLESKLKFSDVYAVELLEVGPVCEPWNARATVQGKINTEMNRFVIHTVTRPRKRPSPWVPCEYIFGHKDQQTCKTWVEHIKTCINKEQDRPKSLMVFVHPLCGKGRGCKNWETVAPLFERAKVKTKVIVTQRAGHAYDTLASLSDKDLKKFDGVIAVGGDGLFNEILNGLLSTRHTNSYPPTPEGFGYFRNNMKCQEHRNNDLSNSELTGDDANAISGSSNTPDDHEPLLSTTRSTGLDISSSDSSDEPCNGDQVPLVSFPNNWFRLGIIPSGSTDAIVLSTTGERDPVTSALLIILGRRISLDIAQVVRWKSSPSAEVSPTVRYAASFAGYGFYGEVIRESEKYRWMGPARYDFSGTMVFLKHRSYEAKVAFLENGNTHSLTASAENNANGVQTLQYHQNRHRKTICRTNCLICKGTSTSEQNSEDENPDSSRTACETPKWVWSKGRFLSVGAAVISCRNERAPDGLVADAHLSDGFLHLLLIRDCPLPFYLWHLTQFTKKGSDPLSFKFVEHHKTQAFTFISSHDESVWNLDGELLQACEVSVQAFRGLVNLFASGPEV

[1] = substrate: CCCCCCCCCCCCC/C=C/[C@@H](O)[C@H](CO)NC(=O)CCCCCNc1ccc([N+](=O)[O-])c2nonc12; experiment: TLC with NBD fluorescence scan, Lineweaver-Burk; assay type: biochemical, Oryza sativa; conditions: ATP 1 mM, 15 mM MgCl2, Triton X-100/cardiolipin mixed micelles, Hepes pH 7.4, 40 °C, labelled compound
[2] = substrate: Nc1ncnc2c1ncn2[C@@H]1O[C@H](COP(=O)(O)OP(=O)(O)OP(=O)(O)O)[C@@H](O)[C@H]1O; experiment: TLC with NBD fluorescence scan, Lineweaver-Burk; assay type: biochemical, Oryza sativa; conditions: co-substrate C6-NBD-ceramide, 15 mM MgCl2, mixed micelles, Hepes pH 7.4, 40 °C, Discussion b40 prints 36.35 µM

Molecule: CCCCCCCCCCCCC/C=C/[C@@H](O)[C@H](CO)NC(=O)CCCCCNc1ccc([N+](=O)[O-])c2nonc12 [D-erythro-C6-NBD-ceramide]
TLC with NBD fluorescence scan, turnover (rACD5): phosphorylating C6-NBD-ceramide to give C6-NBD-ceramide-1-phosphate, as did recombinant OsCERK and rACD5

B1: OsCERK (Oryza sativa Japonica Group) (protein)
chain: T2 sequence (C0LT23 1-607)
notes: N-terminus from primer MEGGGEAL
Km [1]: 4.1 µM
Km [2]: 35.36 µM

Second part, the molecule after the results:

inhibition at 100 µM (OsCERK): ~70%
Molecule: CCCCCCCCCCCCC/C=C/[C@@H](O)[C@H](CO)N(C)C [N,N-dimethylsphingosine]

% inhibition at 200 μM (OsCERK; C6-NBD-ceramide, ATP, 15 mM MgCl2, mixed micelles, 40 °C, 0.5% ethanol or methanol as solvent): > 90%
Molecule: O=C(Nc1nc2ccc(NC(=O)C34CC5CC(CC(C5)C3)C4)cc2s1)c1ccccc1 [ceramide kinase inhibitor K1]

Source: publication PMC3069040, “A Conserved Cysteine Motif Is Critical for Rice Ceramide Kinase Activity and Function” (PLoS ONE, 2011)
